Test results as given in article PMC8079033, “Design, synthesis, anticancer evaluation, and molecular modelling studies of novel tolmetin derivatives as potential VEGFR-2 inhibitors and apoptosis inducers” (Journal of Enzyme Inhibition and Medicinal Chemistry, 2021).

What was measured:
[1] = test system: BT-5; assay: NCI 60-cell line one-dose antiproliferative screen (SRB); assay type: cell-based; details: Homo sapiens, read-out: growth inhibition % (GI%)
Description: (§1) Anticancer activity screening of the newly synthesised compounds was measured in vitro utilising 60 different human tumour cell lines provided by US National Cancer Institute according to previously reported standard procedure[41–43] as follows: Cells are inoculated into 96-well microtiter plates in 100 ml. After cell inoculation, the microtiter plates are incubated at 37 °C, 5% CO2, 95% air, and 100% relative humidity for 24 h prior to addition of experimental compounds. After 24 h, two plates of each cell line are fixed in situ with TCA, to represent a measurement of the cell population for each cell line at the time of compound addition (Tz). Experimental compounds are solubilised in dimethyl sulfoxide at 400-fold the desired final maximum test concentration and stored frozen prior to use. At the time of compound addition, an aliquot of frozen concentrate is thawed and diluted to twice the desired final maximum test concentration with a complete medium containing […] gentamicin. Aliquots of […] of the compounds dilutions are added to the appropriate microtiter wells already containing 100 ml of medium, resulting in the required final compound concentration. Following compound addition, the plates are incubated for an additional 48 h at 37 °C, 5% CO2, 95% air, and 100% relative humidity. For adherent cells, the assay is terminated by the addition of cold trichloroacetic acid (TCA). Cells are fixed in situ by the gentle addition of 50 ml of cold 50% (w/v) TCA (final concentration, 10% TCA) and incubated for […] at 4 °C. The supernatant is discarded, and the plates are washed five times with tap water and air-dried. Sulforhodamine B (SRB) solution (100 ml) at 0.4% (w/v) in 1% acetic acid is added to each well, and plates are incubated for 10 min at room temperature. After staining, the unbound dye is removed by washing five times with 1% acetic acid and the plates are air-dried. The bound stain is subsequently solubilised with a 10 mM trizma base, and the absorbance is read on an automated plate reader at a wavelength of 515 nm. For suspension cells, the methodology is the same except that the assay is terminated by fixing settled cells at the bottom of the wells by gently adding 50 ml of 80% TCA (final concentration, 16% TCA). Using the absorbance measurements [time zero, (Tz), control growth, (C), and test growth in the presence of compound (Ti)], the percentage growth is calculated for each compound. The One-dose data are reported as a mean graph of the percent growth of treated cells. The reported number is growth relative to the no-compound control, and relative to the time zero number of cells. This allows the detection of both growth inhibition and lethality.
(§2) Fifteen newly synthesised compounds were tested for their in vitro antiproliferative activity by the National Cancer Institute (NCI), Maryland, USA[50], under the Developmental Therapeutic Program (DTP)[41]^,[43]^,[51]^,[52]. The tested compounds were evaluated at a concentration of 10 µM on a panel of 60 tumour cell lines representing leukaemia and non-small cell lung, colon, CNS, melanoma, ovarian, renal, prostate, and breast cancers. The antiproliferative activity was presented by the NCI as percent growth of the treated cells and is presented in Table 1 as growth inhibition percentage (GI%) achieved by the tested compounds.

[2] = test system: NCI-H23; assay: as above; assay type: cell-based; details: Homo sapiens, read-out: growth inhibition % (GI%)
Description: as §1, §2

[3] = test system: M14; assay: as above; assay type: cell-based; details: Homo sapiens, read-out: growth inhibition % (GI%)
Description: as §1, §2

[4] = test system: SK-OV-3; assay: as above; assay type: cell-based; details: Homo sapiens, read-out: growth inhibition % (GI%)
Description: as §1, §2

[5] = test system: LOX IMVI; assay: as above; assay type: cell-based; details: Homo sapiens, read-out: growth inhibition % (GI%)
Description: as §1, §2

[6] = test system: U251; assay: as above; assay type: cell-based; details: Homo sapiens, U-251, read-out: growth inhibition % (GI%)
Description: as §1, §2

[7] = test system: NCI-H522; assay: as above; assay type: cell-based; details: Homo sapiens, read-out: growth inhibition % (GI%)
Description: as §1, §2

[8] = test system: CCRF-CEM; assay: as above; assay type: cell-based; details: Homo sapiens, read-out: growth inhibition % (GI%)
Description: as §1, §2

[9] = test system: HOP-62; assay: as above; assay type: cell-based; details: Homo sapiens, read-out: growth inhibition % (GI%)
Description: as §1, §2

[10] = test system: SNB-19; assay: as above; assay type: cell-based; details: Homo sapiens, read-out: growth inhibition % (GI%)
Description: as §1, §2

[11] = test system: PC-3; assay: as above; assay type: cell-based; details: Homo sapiens, read-out: growth inhibition % (GI%)
Description: as §1, §2

[12] = test system: SW-620; assay: as above; assay type: cell-based; details: Homo sapiens, read-out: growth inhibition % (GI%)
Description: as §1, §2

[13] = test system: K-562; assay: as above; assay type: cell-based; details: Homo sapiens, K562, read-out: growth inhibition % (GI%)
Description: as §1, §2

[14] = test system: SNB-75; assay: as above; assay type: cell-based; details: Homo sapiens, read-out: growth inhibition % (GI%)
Description: as §1, §2

[15] = test system: NCI/ADR-RES; assay: as above; assay type: cell-based; details: Homo sapiens, read-out: growth inhibition % (GI%)
Description: as §1, §2

[16] = test system: EKVX; assay: as above; assay type: cell-based; details: Homo sapiens, read-out: growth inhibition % (GI%)
Description: as §1, §2

[17] = test system: NCI-H322M; assay: as above; assay type: cell-based; details: Homo sapiens, read-out: growth inhibition % (GI%)
Description: as §1, §2

[18] = test system: SN 12 C; assay: as above; assay type: cell-based; details: Homo sapiens, SN12C, read-out: growth inhibition % (GI%)
Description: as §1, §2

[19] = test system: MDA-MB-231/ATCC; assay: as above; assay type: cell-based; details: Homo sapiens, read-out: growth inhibition % (GI%)
Description: as §1, §2

[20] = test system: OVCAR-8; assay: as above; assay type: cell-based; details: Homo sapiens, read-out: growth inhibition % (GI%)
Description: as §1, §2

[21] = test system: SK-MEL-5; assay: as above; assay type: cell-based; details: Homo sapiens, read-out: growth inhibition % (GI%)
Description: as §1, §2

[22] = test system: KM12; assay: as above; assay type: cell-based; details: Homo sapiens, read-out: growth inhibition % (GI%)
Description: as §1, §2

[23] = test system: CAKI-1; assay: as above; assay type: cell-based; details: Homo sapiens, read-out: growth inhibition % (GI%)
Description: as §1, §2

[24] = test system: MOLT-4; assay: as above; assay type: cell-based; details: Homo sapiens, read-out: growth inhibition % (GI%)
Description: as §1, §2

[25] = test system: SK-MEL-2; assay: as above; assay type: cell-based; details: Homo sapiens, read-out: growth inhibition % (GI%)
Description: as §1, §2

[26] = test system: HS 578 T; assay: as above; assay type: cell-based; details: Homo sapiens, read-out: growth inhibition % (GI%)
Description: as §1, §2

[27] = test system: HL-60 (TB); assay: as above; assay type: cell-based; details: Homo sapiens, read-out: growth inhibition % (GI%)
Description: as §1, §2

[28] = test system: HCT-116; assay: as above; assay type: cell-based; details: Homo sapiens, read-out: growth inhibition % (GI%)
Description: as §1, §2

[29] = test system: HCT-15; assay: as above; assay type: cell-based; details: Homo sapiens, read-out: growth inhibition % (GI%)
Description: as §1, §2

[30] = test system: SF-268; assay: as above; assay type: cell-based; details: Homo sapiens, read-out: growth inhibition % (GI%)
Description: as §1, §2

[31] = test system: T-47D; assay: as above; assay type: cell-based; details: Homo sapiens, T47D, read-out: growth inhibition % (GI%)
Description: as §1, §2

[32] = test system: A549/ATCC; assay: as above; assay type: cell-based; details: Homo sapiens, read-out: growth inhibition % (GI%)
Description: as §1, §2

[33] = test system: MDA-MB-435; assay: as above; assay type: cell-based; details: Homo sapiens, read-out: growth inhibition % (GI%)
Description: as §1, §2

[34] = test system: A498; assay: as above; assay type: cell-based; details: Homo sapiens, read-out: growth inhibition % (GI%)
Description: as §1, §2

[35] = test system: MCF7; assay: as above; assay type: cell-based; details: Homo sapiens, read-out: growth inhibition % (GI%)
Description: as §1, §2

[36] = test system: SK-MEL-28; assay: as above; assay type: cell-based; details: Homo sapiens, read-out: growth inhibition % (GI%)
Description: as §1, §2

[37] = test system: UO-31; assay: as above; assay type: cell-based; details: Homo sapiens, read-out: growth inhibition % (GI%)
Description: as §1, §2

[38] = test system: ACHN; assay: as above; assay type: cell-based; details: Homo sapiens, read-out: growth inhibition % (GI%)
Description: as §1, §2

[39] = test system: NCI-H226; assay: as above; assay type: cell-based; details: Homo sapiens, read-out: growth inhibition % (GI%)
Description: as §1, §2

[40] = test system: IGROV1; assay: as above; assay type: cell-based; details: Homo sapiens, IGROV-1, read-out: growth inhibition % (GI%)
Description: as §1, §2

## Cc1ccc(C(=O)c2ccc(CC(=O)NN3C(=O)c4ccccc4C3=O)n2C)cc1 [Compound 7c, N-(1,3-Dioxoisoindolin-2-yl)-2–(1-methyl-5–(4-methylbenzoyl)-1H-pyrrol-2-yl) acetamide]
other
  melting point: > 300 °C
[1]
  inhibition at 10 µM: < 10%
[2]
  inhibition at 10 µM: < 10%
[3]
  inhibition at 10 µM: < 10%
[4]
  inhibition at 10 µM: < 10%
[5]
  inhibition at 10 µM: 10.2%
[6]
  inhibition at 10 µM: < 10%
[7]
  inhibition at 10 µM: 14.4%
[8]
  inhibition at 10 µM: < 10%
[9]
  inhibition at 10 µM: < 10%
[10]
  inhibition at 10 µM: < 10%
[11]
  inhibition at 10 µM: < 10%
[12]
  inhibition at 10 µM: < 10%
[13]
  inhibition at 10 µM: < 10%
[14]
  inhibition at 10 µM: 17.9%
[15]
  inhibition at 10 µM: < 10%
[16]
  inhibition at 10 µM: 24.5%
[17]
  inhibition at 10 µM: < 10%
[18]
  inhibition at 10 µM: < 10%
[19]
  inhibition at 10 µM: < 10%
[20]
  inhibition at 10 µM: < 10%
[21]
  inhibition at 10 µM: < 10%
[22]
  inhibition at 10 µM: < 10%
[23]
  inhibition at 10 µM: < 10%
[24]
  inhibition at 10 µM: 10.6%
[25]
  inhibition at 10 µM: < 10%
[26]
  inhibition at 10 µM: < 10%
[27]
  inhibition at 10 µM: < 10%
[28]
  inhibition at 10 µM: < 10%
[29]
  inhibition at 10 µM: < 10%
[30]
  inhibition at 10 µM: < 10%
[31]
  inhibition at 10 µM: 25.5%
[32]
  inhibition at 10 µM: 14%
[33]
  inhibition at 10 µM: < 10%
[34]
  inhibition at 10 µM: 13.3%
[35]
  inhibition at 10 µM: < 10%
[36]
  inhibition at 10 µM: < 10%
[37]
  inhibition at 10 µM: 27.3%
[38]
  inhibition at 10 µM: < 10%
[39]
  inhibition at 10 µM: < 10%
[40]
  inhibition at 10 µM: 14.8%
